Test system: platelets (TAPP-2 expression)
Test: Expression of TAPP-2 on platelets stimulated by different agonists (binding of 125I-MAb 12A7)
Assay type: cell-based, rabbit
Conditions: compared to resting platelets, 10 minutes at room temperature
Protocol: Platelets were incubated with various agonists, with or without Ca^2+ or EDTA and then fixed by paraformaldehyde. The fixed platelets were washed and incubated with ^125 I-MAb 12A7 (50,000 cpm), with or without unlabeled MAb 12A7 (0.5 ug) added as an inhibitor to estimate nonspecific binding. After 45 min. the platelet samples were again washed, spun, and aspirated. The platelet pellet was counted to determine the amount of bound MAb 12A7.
Equilibrium saturation binding studies were conducted in a similar manner. Platelets activated by thrombin (0.15 U/ml) were incubated in duplicate with various amounts of ^125 I-MAb 12A7 (1,000,000 to 6,250 cpm) in a total volume of 200 μl. Each tube also contained a molar excess (>100-fold) of a control, anti-digoxin MAb, of the same isotype (Mudgett-Hunter et al., Mol. Immunol. 22:477-488 (1985)), which was added to inhibit nonspecific binding of ^125 I-MAb 12A7 to platelets via Fc receptors. To estimate nonspecific binding, a molar excess (>100-fold) of nonradioactive MAb 12A7 was added to one set of tubes. After incubation for 45 minutes at room temperature 2 ml of cold Tyrode's buffer was added, the tubes were centrifuged at 3000 ×g for 10 minutes and the unbound ^125 I-12A7 MAb was removed. The bound antibody was measured by gamma counting in Micro-Medics 4/600 counter. To study the binding of MAb 12A7 to resting platelets a similar procedure was performed except that the number of platelets had to be increased to 1.29×10^8 cells in a total incubation volume of 400 μl. The platelets were incubated with various amounts of MAb 12A7 (2,000,000 to 25,000 cpm) as above. The binding data was analyzed by the Ligand program of Munson and Rodbard, Anal. Biochem. 107:220-239 (1980)). […] The binding of 12A7 to platelets stimulated by different agonists was also studied. Platelets were isolated as described above. Platelets (5×10^6 cells/40 Kl) in modified Tyrode's (without divalent cations) were added to plastic tubes. […] After 45 minutes the platelet samples were again washed, spun, aspirated and gamma-counted.

## CNc1ccc2oc(C[C@H]3O[C@@]4(CC[C@H]3C)O[C@H]([C@H](C)C(=O)c3ccc[nH]3)[C@H](C)C[C@H]4C)nc2c1C(=O)O [A23187]
A23187 2 μM
  TAPP-2 expression as indicated by the binding of 125I-MAb 12A7: notable increase

## Nc1ncnc2c1ncn2[C@@H]1O[C@H](COP(=O)(O)OP(=O)(O)O)[C@@H](O)[C@H]1O [ADP]
ADP 10 μM
  TAPP-2 expression as indicated by the binding of 125I-MAb 12A7: notable increase

## CNC[C@H](O)c1ccc(O)c(O)c1 [epinephrine]
Epinephrine 2 μM
  TAPP-2 expression as indicated by the binding of 125I-MAb 12A7: little, if any, effect
